{
  "source": "patent US10752603B2",
  "about": "“Purification of oxydiphthalic anhydrides” (SABIC Global Technologies, B.V., priority 2018, dated 2020)",
  "test": "Color stability of ODPA after heat treatment (220 to 225° C., about 8 hours)",
  "assay_type": "physicochemical",
  "conditions": "220 to 225° C. for about 8 hours, visual observation",
  "procedure": "The color stability of the ODPA after subjecting the ODPA to heat treatment was also examined. The heat stability testing was performed on various ODPA samples as described in Table 7. The samples were tested using a 10 wt % solution of each sample in DMF and APHA values were recorded using a Macbeth colorimeter Each sample was heat-treated by exposing the sample to a temperature of 220 to 225° C. for about 8 hours. The samples were monitored for color changes during the heat exposure duration. Visual observations are recorded in Table 7, as well as the measured APHA color values.",
  "note": "Entries after “also recorded” stand apart in the source; their conditions may differ.",
  "data": [
    {"compound": "O=C1OC(=O)c2cc(Oc3ccc4c(c3)C(=O)OC4=O)ccc21", "note": "[Example 74, reference compound]", "values": [
      {"measurement": "Qualitative color observations after exposure to heat", "result": "no detectable color change; also recorded: No change observed"}
    ]}
  ]
}
